This assay deals with nude mice, LOX melanoma ip, survival T/C. Put plainly: NCI In Vivo Anticancer Drug Screen. Data for tumor model Human Amelanotic Melanoma (LOX) (intraperitoneal) in NU/NU BALB/C (nude) mice. The note with it: endpoint: median survival time, higher = longer survival. The procedure:
The antitumor activity of compounds was measured in mice bearing transplantable tumors. Survival or tumor size were measured and the results are expressed as the measurement made in the treated group (T) divided by the measurement made in the vehicle treated control group (C). The tumor model used in this assay is Human Amelanotic Melanoma (LOX) (intraperitoneal) in NU/NU BALB/C (nude) mice

Setting [1] is: dose: 25.0 mg/kg/injection, schedule: Q04DX003 (ip), vehicle: saline with Tween-80.
The mark [2] stands for this setting: dose: 50.0 mg/kg/injection, schedule: Q04DX003 (ip), vehicle: saline with Tween-80.
Where [3] appears, read: dose: 75.0 mg/kg/injection, schedule: Q04DX003 (ip), vehicle: saline with Tween-80.
Setting [4] is: dose: 300.0 mg/kg/injection, schedule: Q04DX003 (ip), vehicle: saline with Tween-80.
Setting [5] is: dose: 75.0 mg/kg/injection, schedule: Q04DX003 (ip), vehicle: saline.
Setting [6] is: dose: 150.0 mg/kg/injection, schedule: Q04DX003 (ip), vehicle: saline.
Setting [7] is: dose: 100.0 mg/kg/injection, schedule: Q04DX003 (ip), vehicle: saline with Tween-80.
[8] abbreviates: dose: 200.0 mg/kg/injection, schedule: Q04DX003 (ip), vehicle: saline with Tween-80.

For 21 compounds, T/C results are on record in PubChem BioAssay AID280 (DTP/NCI, 2004).

Values joined by “and” are separate entries in the source; they are usually repeats but may differ in a detail not shown here. Equal entries are not always repeated. Toxic doses and inconclusive results are not listed.

Consider `[NH-]C(CCC(N)=O)C(=O)O.[NH-]C(CCC(N)=O)C(=O)O.[Zn+2]` (configuration not stated), for which the T/C (dose: 12.5 mg/kg/injection, schedule: Q04DX003 (ip), vehicle: saline with Tween-80) was 94 % of control; the T/C under setting [1] was 94 % of control; the T/C under setting [2] was 118 % of control.

Consider `CNC(=O)/C=C/C1=CN2C(=O)c3ccc(C)c(O)c3NC(OC)C2C1` (configuration not stated), for which the T/C (dose: 200.0 micrograms/kg/injection, schedule: Q04DX003 (ip), vehicle: saline) is 121 % of control.

On to `O=C(Nc1cccc(Cl)c1)ON1C(=O)C2C(C1=O)C1(Cl)C(Cl)C(Cl)C2(Cl)C1(Cl)Cl` (configuration not stated), for which the T/C reads like this: under setting [3], 99 % of control; (dose: 150.0 mg/kg/injection, schedule: Q04DX003 (ip), vehicle: saline with Tween-80) 86 % of control; under setting [4], 90 % of control; (dose: 600.0 mg/kg/injection, schedule: Q04DX003 (ip), vehicle: saline with Tween-80) 101 % of control.

For `c1cn[nH]c1`, the T/C under setting [5] is 109 % of control and the T/C under setting [6] is 107 % of control.

Turning to `O=c1[nH]cnc2c1nnn2C1OC(CO)C(O)C1O` (configuration not stated), the T/C reads like this: (dose: 180.0 mg/kg/injection, schedule: Q04DX003 (ip), vehicle: suspension in saline) 123 % of control; (dose: 833.0 mg/kg/injection, schedule: Q04DX003 (ip), vehicle: suspension in saline) 153 % of control.

Take `CN=NN(C)C(=O)NC`: the T/C was 154 % of control (dose: 25.0 mg/kg/injection, schedule: Q04DX003 (ip), vehicle: saline); 188 % of control (dose: 50.0 mg/kg/injection, schedule: Q04DX003 (ip), vehicle: saline); 230 % of control (dose: 100.0 mg/kg/injection, schedule: Q04DX003 (ip), vehicle: saline).

As to `Clc1cccc(Cl)c1C(Nc1nncs1)Nc1nncs1`, the T/C is 106 % of control under setting [2] and 106 % of control under setting [7].

In the case of `COc1ccc(OC)c(Cc2cnc3nc(N)nc(N)c3c2C)c1`, the T/C reads like this: (dose: 7.5 mg/kg/injection, schedule: Q04DX003 (ip), vehicle: water) 99 % of control; (dose: 15.0 mg/kg/injection, schedule: Q04DX003 (ip), vehicle: water) 105 % of control; (dose: 30.0 mg/kg/injection, schedule: Q04DX003 (ip), vehicle: water) 101 % of control; (dose: 37.5 mg/kg/injection, schedule: Q04DX003 (ip), vehicle: water) 91 % of control; (dose: 60.0 mg/kg/injection, schedule: Q04DX003 (ip), vehicle: water) 107 % of control; (dose: 75.0 mg/kg/injection, schedule: Q04DX003 (ip), vehicle: water) 88 % of control.

As for `O=NN(CCCl)C(=O)Oc1ccc(OC(=O)N(CCCl)N=O)cc1`, the T/C (dose: 20.0 mg/kg/injection, schedule: Q04DX003 (ip), vehicle: Klucel (hydroxypropylcellulose) (HPC)) is 118 % of control and the T/C (dose: 40.0 mg/kg/injection, schedule: Q04DX003 (ip), vehicle: Klucel (hydroxypropylcellulose) (HPC)) is 94 % of control.

As for `[CH3][Sn]([CH3])([Cl])[c]1cc[c]([Sn]([CH3])([CH3])[Cl])cc1`, the T/C is, setting by setting: (dose: 0.63 mg/kg/injection, schedule: Q04DX003 (ip), vehicle: saline) 91 % of control; (dose: 1.25 mg/kg/injection, schedule: Q04DX003 (ip), vehicle: saline) 103 % of control; (dose: 2.5 mg/kg/injection, schedule: Q04DX003 (ip), vehicle: saline) 98 % of control; (dose: 5.0 mg/kg/injection, schedule: Q04DX003 (ip), vehicle: saline) 107 % of control.

On to `CC(=O)O[C@H]1C(=O)[C@@]2(C)[C@H]([C@H](OC(=O)c3ccccc3)[C@]3(O)C[C@H](OC(=O)[C@H](O)[C@@H](NC(=O)c4ccccc4)c4ccccc4)C(C)=C1C3(C)C)[C@]1(OC(C)=O)CO[C@@H]1C[C@@H]2O`, for which the T/C runs as follows: (dose: 1.88 mg/kg/injection, schedule: Q01DX009 (ip), vehicle: Klucel (hydroxypropylcellulose) (HPC)) 172 % of control; (dose: 3.75 mg/kg/injection, schedule: Q01DX009 (ip), vehicle: Klucel (hydroxypropylcellulose) (HPC)) 158 % of control and 173 % of control; (dose: 7.5 mg/kg/injection, schedule: Q01DX009 (ip), vehicle: Klucel (hydroxypropylcellulose) (HPC)) 170 % of control; (dose: 15.0 mg/kg/injection, schedule: Q01DX009 (ip), vehicle: Klucel (hydroxypropylcellulose) (HPC)) 105 % of control and 93 % of control.

Regarding `BrC[P+](CBr)(CBr)CBr`, the T/C by setting is: under setting [2], 113 % of control; under setting [7], 121 % of control; under setting [8], 105 % of control; (dose: 400.0 mg/kg/injection, schedule: Q04DX003 (ip), vehicle: saline with Tween-80) 103 % of control; (dose: 800.0 mg/kg/injection, schedule: Q04DX003 (ip), vehicle: saline with Tween-80) 119 % of control.

For `COc1ccc2c(ccc3oc([N+](=O)[O-])cc32)c1`, the T/C by setting is: (dose: 100.0 mg/kg/injection, schedule: Q04DX003 (ip), vehicle: Klucel (hydroxypropylcellulose) (HPC)) 121 % of control; (dose: 120.0 mg/kg/injection, schedule: Q04DX003 (ip), vehicle: Klucel (hydroxypropylcellulose) (HPC)) 170 % of control; (dose: 400.0 mg/kg/injection, schedule: Q04DX003 (ip), vehicle: Klucel (hydroxypropylcellulose) (HPC)) 86 % of control.

On to `C=CC1(C)CC(=O)C2(O)C(C)(O1)C(OC(C)=O)C(O)C1C(C)(C)CCC(O)C12C` (configuration not stated), for which the T/C reads like this: (dose: 8.0 mg/kg/injection, schedule: Q04DX003 (ip), vehicle: DMSO) 102 % of control; (dose: 16.0 mg/kg/injection, schedule: Q04DX003 (ip), vehicle: DMSO) 103 % of control; (dose: 32.0 mg/kg/injection, schedule: Q04DX003 (ip), vehicle: DMSO) 102 % of control; (dose: 64.0 mg/kg/injection, schedule: Q04DX003 (ip), vehicle: DMSO) 91 % of control.

`CCCCCC1c2cc(O)ccc2OC1N1CCOCC1` (configuration not stated): the T/C under setting [1] is 111 % of control, the T/C under setting [2] was 100 % of control and the T/C under setting [8] is 86 % of control.

As for `C=CCNC(=O)c1ccccc1SC(C)=O`, the T/C reads like this: (dose: 37.5 mg/kg/injection, schedule: Q04DX003 (ip), vehicle: saline with Tween-80) 100 % of control; under setting [3], 95 % of control; under setting [4], 93 % of control.

As to `CCCCCNc1ncnc2c(C)[nH]nc12`, the T/C by setting is: (dose: 18.75 mg/kg/injection, schedule: Q04DX003 (ip), vehicle: Klucel (hydroxypropylcellulose) (HPC)) 103 % of control; (dose: 37.5 mg/kg/injection, schedule: Q04DX003 (ip), vehicle: Klucel (hydroxypropylcellulose) (HPC)) 94 % of control; (dose: 75.0 mg/kg/injection, schedule: Q04DX003 (ip), vehicle: Klucel (hydroxypropylcellulose) (HPC)) 98 % of control; (dose: 150.0 mg/kg/injection, schedule: Q04DX003 (ip), vehicle: Klucel (hydroxypropylcellulose) (HPC)) 94 % of control.

Turning to `NC(CCC(=O)NC(CS)C(=O)NCC(=O)O)C(=O)O` (configuration not stated), the T/C under setting [5] is 100 % of control; the T/C under setting [6] was 100 % of control; the T/C (dose: 259.0 mg/kg/injection, schedule: Q04DX003 (ip), vehicle: saline) is 108 % of control; the T/C (dose: 300.0 mg/kg/injection, schedule: Q04DX003 (ip), vehicle: saline) is 107 % of control; the T/C (dose: 432.0 mg/kg/injection, schedule: Q04DX003 (ip), vehicle: saline) was 108 % of control; the T/C (dose: 600.0 mg/kg/injection, schedule: Q04DX003 (ip), vehicle: saline) was 104 % of control. For the same compound, the T/C runs as follows: (dose: 720.0 mg/kg/injection, schedule: Q04DX003 (ip), vehicle: saline) 93 % of control; (dose: 1200.0 mg/kg/injection, schedule: Q04DX003 (ip), vehicle: saline) 95 % of control.

On to `NC(Cc1ccc(N(CCCl)Cc2ccccc2)cc1)C(=O)O` (configuration not stated), for which the T/C was 107 % of control under setting [1]; 124 % of control under setting [2]; 158 % of control and 163 % of control under setting [8].

`CC(=O)c1cccc(NC2C(N)C(NC(=O)N(C)C)(C(C)O)C(C)(O)C2(O)COC(=O)c2c(C)cccc2O)c1` (configuration not stated): the T/C (dose: 12.5 mg/kg/injection, schedule: Q04DX003 (ip), vehicle: suspension in saline) is 173 % of control.

With `CCCCCCSc1nc(COC(=O)NC)c(COC(=O)NC)n1C`, the T/C is 102 % of control (dose: 16.85 mg/kg/injection, schedule: Q04DX003 (ip), vehicle: saline); 90 % of control (dose: 33.7 mg/kg/injection, schedule: Q04DX003 (ip), vehicle: saline); 93 % of control (dose: 67.5 mg/kg/injection, schedule: Q04DX003 (ip), vehicle: saline); 107 % of control (dose: 135.0 mg/kg/injection, schedule: Q04DX003 (ip), vehicle: saline); 123 % of control (dose: 270.0 mg/kg/injection, schedule: Q04DX003 (ip), vehicle: saline).
